Laboratory results: patent US10800791B2, “Triazole ACC inhibitors and uses thereof” (Gilead Apollo, LLC, priority 2015, dated 2020)
Values after ≈ are worked out from the molar mass of the structure shown. Where two headings read alike, the source gives them in different places.

What was measured:
[1] = system: Fusarium virguliforme (Fv); experiment: Growth inhibition assay of fungal pathogens, Fv; type: cell-based; details: 48 h
Procedure, shortened: (§1)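 Spore suspension in 17% V8 liquid media; cpd final 50/10/2 or 2/0.4/0.08 ppm, 2% DMSO. OD600 + visual, 24 & 48 h; % inhibition at 48 h vs 2% DMSO ctrl.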

C. krusei = experiment: Antifungal Activity Assay (broth microtiter MIC), C. krusei; type: cell-based, Candida krusei; details: Pichia kudriavzevii, ATCC6258, 48 h
Procedure, shortened: (§2)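 Colonies from 24 h Sabouraud dextrose agar plates (35° C) are suspended in RPMI 1640+MOPS and diluted to give 2.5×10^3 CFU/mL in the wells. Plates are set up per CLSI M27-A3. Visual MIC is recorded at 48 h.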

[2] = system: Fusarium moniliforme (Fm); experiment: Growth inhibition assay of fungal pathogens, Fm; type: cell-based; details: for IC90: Fusarium verticillioides, 48 h, read-out: Concentration at 90% Inhibition Fm
Procedure, shortened: as §1

[3] = system: Collectotrichum graminicola (Cg); experiment: Growth inhibition assay of fungal pathogens, Cg; type: cell-based; details: 48 h
Procedure, shortened: as §1

[4] = system: Phytophthora capsici (Pc); experiment: Growth inhibition assay of fungal pathogens, Pc; type: cell-based; details: 48 h
Procedure, shortened: as §1

fungal (fACC2) = fungal (fACC2) (UniProt Q00955); details: read-out: fACC2 (in vitro ACC2 Inhibition Assay, IC50), ADP-Glo, 5 nM ACC2, 20 μM ATP, 20 μM acetyl-CoA
fungal (fACC2), sequence (Q00955 whole entry): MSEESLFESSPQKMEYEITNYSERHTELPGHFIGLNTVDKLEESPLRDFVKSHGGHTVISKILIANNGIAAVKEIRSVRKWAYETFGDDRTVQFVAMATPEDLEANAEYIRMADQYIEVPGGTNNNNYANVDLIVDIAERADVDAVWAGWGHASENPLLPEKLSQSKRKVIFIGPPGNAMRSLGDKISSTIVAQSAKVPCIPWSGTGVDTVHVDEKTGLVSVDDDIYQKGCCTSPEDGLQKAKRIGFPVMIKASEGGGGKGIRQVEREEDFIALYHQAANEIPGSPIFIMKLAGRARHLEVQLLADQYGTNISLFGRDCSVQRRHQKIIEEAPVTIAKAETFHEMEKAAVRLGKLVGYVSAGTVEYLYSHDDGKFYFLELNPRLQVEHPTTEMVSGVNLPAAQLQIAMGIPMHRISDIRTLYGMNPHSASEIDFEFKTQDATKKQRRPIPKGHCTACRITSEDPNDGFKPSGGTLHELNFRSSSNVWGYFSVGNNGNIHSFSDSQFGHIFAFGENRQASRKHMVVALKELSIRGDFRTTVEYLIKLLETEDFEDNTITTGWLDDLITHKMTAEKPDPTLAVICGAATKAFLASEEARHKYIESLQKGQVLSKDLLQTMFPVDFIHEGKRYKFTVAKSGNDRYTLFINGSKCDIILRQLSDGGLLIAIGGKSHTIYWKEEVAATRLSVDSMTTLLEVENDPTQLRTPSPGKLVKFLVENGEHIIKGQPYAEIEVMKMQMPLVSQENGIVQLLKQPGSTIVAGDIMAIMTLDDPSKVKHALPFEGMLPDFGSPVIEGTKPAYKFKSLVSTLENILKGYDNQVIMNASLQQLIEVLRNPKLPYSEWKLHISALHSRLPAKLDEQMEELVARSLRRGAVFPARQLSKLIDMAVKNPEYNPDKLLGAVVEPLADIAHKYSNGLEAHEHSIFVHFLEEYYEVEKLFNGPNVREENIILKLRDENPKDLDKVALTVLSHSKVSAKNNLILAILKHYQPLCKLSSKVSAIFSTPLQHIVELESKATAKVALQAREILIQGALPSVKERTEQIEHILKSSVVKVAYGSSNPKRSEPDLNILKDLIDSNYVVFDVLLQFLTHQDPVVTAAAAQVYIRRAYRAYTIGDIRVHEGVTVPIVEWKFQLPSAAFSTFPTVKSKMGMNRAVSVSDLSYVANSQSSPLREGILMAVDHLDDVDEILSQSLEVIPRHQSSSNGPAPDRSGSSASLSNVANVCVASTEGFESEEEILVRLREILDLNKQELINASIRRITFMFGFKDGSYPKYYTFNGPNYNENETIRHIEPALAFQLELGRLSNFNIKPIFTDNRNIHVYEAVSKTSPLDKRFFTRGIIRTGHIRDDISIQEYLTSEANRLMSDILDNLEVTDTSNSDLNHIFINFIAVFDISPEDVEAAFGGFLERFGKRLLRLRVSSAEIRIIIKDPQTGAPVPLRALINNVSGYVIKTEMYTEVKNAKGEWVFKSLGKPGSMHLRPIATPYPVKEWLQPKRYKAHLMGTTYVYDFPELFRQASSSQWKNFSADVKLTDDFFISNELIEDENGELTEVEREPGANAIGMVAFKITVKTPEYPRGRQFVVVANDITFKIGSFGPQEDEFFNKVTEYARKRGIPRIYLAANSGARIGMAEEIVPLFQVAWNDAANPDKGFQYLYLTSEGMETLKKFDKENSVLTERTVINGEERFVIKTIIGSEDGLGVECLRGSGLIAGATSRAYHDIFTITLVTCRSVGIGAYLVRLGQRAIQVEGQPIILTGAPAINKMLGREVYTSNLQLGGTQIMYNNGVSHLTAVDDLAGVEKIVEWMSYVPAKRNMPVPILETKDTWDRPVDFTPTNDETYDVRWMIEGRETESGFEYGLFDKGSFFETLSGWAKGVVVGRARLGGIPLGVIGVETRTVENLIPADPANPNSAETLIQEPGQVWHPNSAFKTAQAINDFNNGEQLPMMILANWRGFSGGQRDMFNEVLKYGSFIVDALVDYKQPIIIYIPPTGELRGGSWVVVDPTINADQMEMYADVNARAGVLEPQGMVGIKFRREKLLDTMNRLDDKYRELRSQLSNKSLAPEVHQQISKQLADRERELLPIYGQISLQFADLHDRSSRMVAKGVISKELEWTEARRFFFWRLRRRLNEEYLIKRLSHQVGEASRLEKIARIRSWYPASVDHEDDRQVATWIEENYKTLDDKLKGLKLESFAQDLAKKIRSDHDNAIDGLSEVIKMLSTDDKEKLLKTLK

Rhizoctonia solani (Rs) = experiment: Growth inhibition assay of fungal pathogens, Rs; type: cell-based; details: 48 h
Septoria tritici (St) = experiment: Growth inhibition assay of fungal pathogens, St; type: cell-based; details: Zymoseptoria tritici, 48 h
Procedure, shortened: as §1

human (hACC2) = human (hACC2) (Homo sapiens, UniProt O00763); experiment: In vitro ACC inhibition assay (ADP-Glo), hACC2; type: biochemical; details: 5 nM ACC2, 20 μM ATP, 20 μM acetyl-CoA
human (hACC2), sequence (O00763 whole entry): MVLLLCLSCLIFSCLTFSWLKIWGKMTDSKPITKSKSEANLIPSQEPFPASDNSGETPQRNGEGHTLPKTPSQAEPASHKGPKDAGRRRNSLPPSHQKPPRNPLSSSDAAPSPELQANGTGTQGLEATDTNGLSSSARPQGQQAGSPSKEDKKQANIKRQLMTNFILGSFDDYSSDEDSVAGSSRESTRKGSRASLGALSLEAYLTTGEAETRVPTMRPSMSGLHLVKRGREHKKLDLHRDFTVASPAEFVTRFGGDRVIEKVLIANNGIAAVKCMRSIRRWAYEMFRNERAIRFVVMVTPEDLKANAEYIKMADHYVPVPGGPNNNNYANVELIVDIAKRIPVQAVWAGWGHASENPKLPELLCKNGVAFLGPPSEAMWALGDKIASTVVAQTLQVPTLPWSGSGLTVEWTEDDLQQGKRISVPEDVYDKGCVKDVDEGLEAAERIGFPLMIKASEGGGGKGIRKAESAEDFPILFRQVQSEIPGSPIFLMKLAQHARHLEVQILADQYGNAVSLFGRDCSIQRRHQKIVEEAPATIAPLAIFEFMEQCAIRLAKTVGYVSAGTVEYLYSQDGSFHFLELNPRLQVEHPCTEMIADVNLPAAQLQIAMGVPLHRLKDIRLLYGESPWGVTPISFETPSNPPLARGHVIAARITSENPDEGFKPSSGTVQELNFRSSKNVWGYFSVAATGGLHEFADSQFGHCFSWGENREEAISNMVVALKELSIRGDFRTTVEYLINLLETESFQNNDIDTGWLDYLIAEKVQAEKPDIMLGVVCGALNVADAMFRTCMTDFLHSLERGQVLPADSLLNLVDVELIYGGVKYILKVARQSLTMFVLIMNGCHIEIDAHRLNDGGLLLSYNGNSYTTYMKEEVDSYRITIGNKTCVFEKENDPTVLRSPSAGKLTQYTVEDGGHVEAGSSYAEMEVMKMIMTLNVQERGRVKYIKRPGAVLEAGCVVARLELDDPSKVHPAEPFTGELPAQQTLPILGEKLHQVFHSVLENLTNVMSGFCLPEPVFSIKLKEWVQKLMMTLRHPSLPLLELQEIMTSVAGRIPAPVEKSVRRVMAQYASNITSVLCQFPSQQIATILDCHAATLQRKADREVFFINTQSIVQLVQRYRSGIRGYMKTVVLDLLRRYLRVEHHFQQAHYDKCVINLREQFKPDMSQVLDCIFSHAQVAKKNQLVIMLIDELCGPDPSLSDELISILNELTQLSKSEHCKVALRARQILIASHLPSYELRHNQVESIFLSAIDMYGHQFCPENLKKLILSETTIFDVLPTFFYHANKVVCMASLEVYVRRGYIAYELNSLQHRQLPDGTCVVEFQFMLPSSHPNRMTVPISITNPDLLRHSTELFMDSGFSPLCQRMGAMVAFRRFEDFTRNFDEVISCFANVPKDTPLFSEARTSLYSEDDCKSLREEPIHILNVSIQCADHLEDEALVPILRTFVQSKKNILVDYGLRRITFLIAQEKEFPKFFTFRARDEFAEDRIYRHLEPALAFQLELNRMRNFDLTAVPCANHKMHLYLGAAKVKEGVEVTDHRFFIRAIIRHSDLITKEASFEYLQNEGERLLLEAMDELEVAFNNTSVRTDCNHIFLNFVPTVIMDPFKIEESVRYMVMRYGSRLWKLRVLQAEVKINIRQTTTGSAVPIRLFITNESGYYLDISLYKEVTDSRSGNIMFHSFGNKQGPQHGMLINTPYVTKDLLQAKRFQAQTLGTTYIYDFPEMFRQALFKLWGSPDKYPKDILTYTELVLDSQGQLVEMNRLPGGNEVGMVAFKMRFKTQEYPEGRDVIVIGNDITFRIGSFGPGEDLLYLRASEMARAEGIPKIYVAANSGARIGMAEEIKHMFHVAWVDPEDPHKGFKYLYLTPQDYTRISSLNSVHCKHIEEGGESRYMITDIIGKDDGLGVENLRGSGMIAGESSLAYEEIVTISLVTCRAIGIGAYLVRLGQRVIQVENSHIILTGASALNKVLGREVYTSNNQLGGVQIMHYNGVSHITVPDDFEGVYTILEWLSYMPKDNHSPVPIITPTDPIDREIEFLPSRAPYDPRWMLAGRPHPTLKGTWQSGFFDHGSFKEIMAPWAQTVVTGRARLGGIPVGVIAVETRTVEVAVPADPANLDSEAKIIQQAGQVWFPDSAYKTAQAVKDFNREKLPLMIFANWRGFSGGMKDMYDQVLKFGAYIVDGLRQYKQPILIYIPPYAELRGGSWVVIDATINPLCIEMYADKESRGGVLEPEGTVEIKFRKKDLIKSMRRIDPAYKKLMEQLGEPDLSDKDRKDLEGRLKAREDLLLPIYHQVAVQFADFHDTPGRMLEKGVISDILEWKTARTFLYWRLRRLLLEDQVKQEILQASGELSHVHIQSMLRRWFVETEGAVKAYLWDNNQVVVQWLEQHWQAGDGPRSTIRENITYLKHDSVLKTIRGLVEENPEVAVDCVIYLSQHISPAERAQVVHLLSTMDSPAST
Method: The detailed procedure is as follows. […] 10 μL ADP glo reagent was added. […] 20 μL kinase detection reagent was added.

C. parapsilosis = experiment: Antifungal Activity Assay (broth microtiter MIC), C. parapsilosis; type: cell-based, Candida parapsilosis; details: Lodderomyces parapsilosis, ATCC22019, 48 h
Procedure, shortened: as §2

[5] = read-out: Concentration at 90% Inhibition Fv, Fusarium virguliforme, growth inhibition at 48 hours vs 2% DMSO control
[6] = read-out: Concentration at 90% Inhibition Fv, Fusarium virguliforme, growth inhibition vs 2% DMSO control at 48 hours
[7] = read-out: MIC, C. krusei ATCC 6258, Table 3a, 3 replicates, MIC recorded at 48 h
[8] = read-out: MIC, C. krusei ATCC 6258, Table 3b (additional results), 3 replicates, MIC recorded at 48 h
[9] = Fusarium moniliforme, growth inhibition at 48 hours vs 2% DMSO control
[10] = read-out: Concentration at 90% Inhibition Cg, Collectotrichum graminicola, growth inhibition at 48 hours vs 2% DMSO control
[11] = read-out: Concentration at 90% Inhibition Cg, Collectotrichum graminicola, growth inhibition vs 2% DMSO control at 48 hours
[12] = read-out: Concentration at 90% Inhibition Pc, Phytophthora capsici, growth inhibition at 48 hours vs 2% DMSO control
[13] = read-out: Concentration at 90% Inhibition Pc, Phytophthora capsici, growth inhibition vs 2% DMSO control at 48 hours
[14] = read-out: Concentration at 90% Inhibition Rs, Rhizoctonia solani, mycelial plugs, growth inhibition at 48 hours vs 2% DMSO control
[15] = read-out: Concentration at 90% Inhibition Rs, Rhizoctonia solani, mycelial plugs, growth inhibition vs 2% DMSO control at 48 hours
[16] = read-out: Concentration at 90% Inhibition St, Septoria tritici, growth inhibition at 48 hours vs 2% DMSO control
[17] = read-out: Concentration at 90% Inhibition St, Septoria tritici, growth inhibition vs 2% DMSO control at 48 hours
[18] = read-out: MIC, C. parapsilosis ATCC 22019, Table 3a, 3 replicates, MIC recorded at 48 h
[19] = read-out: MIC, C. parapsilosis ATCC 22019, Table 3b (additional results), 3 replicates, MIC recorded at 48 h

| SMILES | IC90 [1, 5] | IC90 [1, 6] | MIC (C. krusei; [7]) | MIC (C. krusei; [8]) | Concentration at 90% Inhibition Fm [2, 9] | IC90 [2] | IC90 [3, 10] | IC90 [3, 11] | IC90 [4, 12] | IC90 [4, 13] | IC50 (fungal (fACC2); Table 2a) | IC50 (fungal (fACC2); Table 2b, additional results) | IC90 (Rhizoctonia solani (Rs); [14]) | IC90 (Rhizoctonia solani (Rs); [15]) | IC90 (Septoria tritici (St); [16]) | IC90 (Septoria tritici (St); [17]) | IC50 (human (hACC2); Table 2a) | IC50 (human (hACC2); Table 2b, additional results) | MIC (C. parapsilosis; [18]) | MIC (C. parapsilosis; [19]) | other results |
| --- | --- | --- | --- | --- | --- | --- | --- | --- | --- | --- | --- | --- | --- | --- | --- | --- | --- | --- | --- | --- | --- |
| COc1ccc(F)cc1[C@H](Cn1c(=O)n(C(C)(C)C(=O)NC(C)C)c(=O)c2c(C)c(-n3nccn3)sc21)OC(C)C [Compound I-4, (R)-2-(1-(2-(5-fluoro-2-methoxyphenyl)-2-isopropoxyethyl)-5-methyl-2,4-dioxo-6-(2H-1,2,3-triazol-2-yl)-1,4-dihydrothieno[2,3-d]pyrimidin-3(2H)-yl)-N-isopropyl-2-methylpropanamide] | 0.4 µg/mL (≈ 0.682 µM) | 0.4 µg/mL (≈ 0.682 µM) | 0.25 to 1 µg/mL (≈ 0.426 to 1.7 µM) | 0.25 to 1 µg/mL (≈ 0.426 to 1.7 µM) | AA (compound concentration of 0.08 ppm at 90% inhibition of fungal pathogens) | 0.08 µg/mL (≈ 0.136 µM) | 0.08 µg/mL (≈ 0.136 µM) | 0.08 µg/mL (≈ 0.136 µM) | > 50 µg/mL | > 50 µg/mL | 1 to 5 nM | 1 to 5 nM | 0.08 µg/mL (≈ 0.136 µM) | 0.08 µg/mL (≈ 0.136 µM) | 2 µg/mL (≈ 3.41 µM) | 10 µg/mL (≈ 17 µM) | 5 to 10 nM | 5 to 10 nM | 0.25 to 1 µg/mL (≈ 0.426 to 1.7 µM) | 1.01 to 2 µg/mL (≈ 1.72 to 3.41 µM) | – |
| COc1ccc(F)cc1[C@H](Cn1c(=O)n(CC(=O)N2CCCC2)c(=O)c2c(C)c(-n3nccn3)sc21)OCCO [Compound I-81, (R)-1-(2-(5-fluoro-2-methoxyphenyl)-2-(2-hydroxy-ethoxy)ethyl)-5-methyl-3-(2-oxo-2-(pyrrolidin-1-yl)ethyl)-6-(2H-1,2,3-triazol-2-yl)thieno[2,3-d]pyrimidine-2,4(1H,3H)-dione] | – | – | – | – | – | – | – | – | – | – | 1 to 5 nM | 1 to 5 nM | – | – | – | – | 5 to 10 nM | 5 to 10 nM | – | – | IC90 ([1]; growth inhibition at 48 hours vs 2% DMSO control, read-out: Concentration at 90% Inhibition Fv): 0.4 µg/mL (≈ 0.699 µM); IC90 ([1]; growth inhibition vs 2% DMSO control at 48 hours, read-out: Concentration at 90% Inhibition Fv): 0.4 µg/mL (≈ 0.699 µM); MIC (C. krusei; Table 3a, ATCC 6258, 3 replicates, MIC recorded at 48 h, read-out: MIC, C. krusei ATCC 6258): 2.1 to 4 µg/mL (≈ 3.67 to 6.99 µM); MIC (C. krusei; Table 3b (additional results), ATCC 6258, 3 replicates, MIC recorded at 48 h, read-out: MIC, C. krusei ATCC 6258): > 4.01 µg/mL; IC90 [2, 9]: 0.08 µg/mL (≈ 0.14 µM); IC90 ([2]; Fusarium moniliforme, growth inhibition vs 2% DMSO control at 48 hours): 0.08 µg/mL (≈ 0.14 µM); IC90 ([3]; Collectotrichum graminicola, growth inhibition at 48 hours vs 2% DMSO control, read-out: Concentration at 90% Inhibition Cg): 2 µg/mL (≈ 3.49 µM); IC90 ([3]; Collectotrichum graminicola, growth inhibition vs 2% DMSO control at 48 hours, read-out: Concentration at 90% Inhibition Cg): 2 µg/mL (≈ 3.49 µM); IC90 ([4]; growth inhibition at 48 hours vs 2% DMSO control, read-out: Concentration at 90% Inhibition Pc): > 50 µg/mL; IC90 ([4]; growth inhibition vs 2% DMSO control at 48 hours, read-out: Concentration at 90% Inhibition Pc): > 50 µg/mL; IC90 (Rhizoctonia solani (Rs); mycelial plugs, growth inhibition at 48 hours vs 2% DMSO control, read-out: Concentration at 90% Inhibition Rs): 0.08 µg/mL (≈ 0.14 µM); IC90 (Rhizoctonia solani (Rs); mycelial plugs, growth inhibition vs 2% DMSO control at 48 hours, read-out: Concentration at 90% Inhibition Rs): 0.08 µg/mL (≈ 0.14 µM); IC90 (Septoria tritici (St); Septoria tritici, growth inhibition at 48 hours vs 2% DMSO control, read-out: Concentration at 90% Inhibition St): > 50 µg/mL; IC90 (Septoria tritici (St); Septoria tritici, growth inhibition vs 2% DMSO control at 48 hours, read-out: Concentration at 90% Inhibition St): > 50 µg/mL; MIC (C. parapsilosis; Table 3a, ATCC 22019, 3 replicates, MIC recorded at 48 h, read-out: MIC, C. parapsilosis ATCC 22019): 2.1 to 4 µg/mL (≈ 3.67 to 6.99 µM); MIC (C. parapsilosis; Table 3b (additional results), ATCC 22019, 3 replicates, MIC recorded at 48 h, read-out: MIC, C. parapsilosis ATCC 22019): 2.01 to 4 µg/mL (≈ 3.51 to 6.99 µM) |
| COc1ccc(F)cc1[C@H](Cn1c(=O)n(C(C)(C)C(=O)NC(C)C)c(=O)c2c(C)c(-n3nccn3)sc21)OCCO [Compound I-43, (R)-2-(1-(2-(5-fluoro-2-methoxyphenyl)-2-(2-hydroxyethoxy)ethyl)-5-methyl-2,4-dioxo-6-(2H-1,2,3-triazol-2-yl)-1,4-dihydrothieno[2,3-d]pyrimidin-3(2H)-yl)-N-isopropyl-2-methylpropanamide] | 0.4 µg/mL (≈ 0.68 µM) | 0.4 µg/mL (≈ 0.68 µM) | 0.25 to 1 µg/mL (≈ 0.425 to 1.7 µM) | 0.25 to 1 µg/mL (≈ 0.425 to 1.7 µM) | AA (compound concentration of 0.08 ppm at 90% inhibition of fungal pathogens) | 0.08 µg/mL (≈ 0.136 µM) | 0.4 µg/mL (≈ 0.68 µM) | 0.4 µg/mL (≈ 0.68 µM) | 2 µg/mL (≈ 3.4 µM) | 10 µg/mL (≈ 17 µM) | 0.4 to 1 nM | 0.3 to 1 nM | 0.08 µg/mL (≈ 0.136 µM) | 0.08 µg/mL (≈ 0.136 µM) | 2 µg/mL (≈ 3.4 µM) | 10 µg/mL (≈ 17 µM) | 5 to 10 nM | 5 to 10 nM | 0.25 to 1 µg/mL (≈ 0.425 to 1.7 µM) | 0.25 to 1 µg/mL (≈ 0.425 to 1.7 µM) | – |
